From publication PMC12263422, “Cryo-EM structure of the human THIK-1 K2P K^+ channel reveals a lower Y gate regulated by lipids and anesthetics” (Nature Structural & Molecular Biology, 2025)
Where “and” joins values, the source holds several entries; their conditions need not be identical. Equal values may be shown once.

Molecular target: T1, THIK-1 R87D (Homo sapiens, UniProt Q9HB14, R87D)
T1 construct: expressed in transfected cells; host or cells: Xenopus oocytes (mRNA injection)
T1 sequence (Q9HB14 1-408 R87D): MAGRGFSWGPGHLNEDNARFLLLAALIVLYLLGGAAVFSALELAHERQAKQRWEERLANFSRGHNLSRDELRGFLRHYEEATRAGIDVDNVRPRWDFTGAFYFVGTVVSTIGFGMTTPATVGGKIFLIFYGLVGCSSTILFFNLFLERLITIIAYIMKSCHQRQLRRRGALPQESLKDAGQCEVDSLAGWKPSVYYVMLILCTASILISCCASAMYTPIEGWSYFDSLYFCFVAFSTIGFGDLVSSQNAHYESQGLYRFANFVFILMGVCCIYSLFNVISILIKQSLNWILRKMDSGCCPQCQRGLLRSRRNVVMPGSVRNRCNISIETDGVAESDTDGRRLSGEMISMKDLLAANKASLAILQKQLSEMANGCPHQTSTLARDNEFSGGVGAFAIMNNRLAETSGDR
Assay: Macroscopic inside-out excised patch recordings, oocytes, THIK-1 R87D mutant
Assay type: cell-based
Text: Human K2P13.1 THIK-1 (GenBank accession number: NM_022054) and human K2P12.1 THIK-2 (NM_022055.1) were used in this study. For functional expression studies, the respective K^+ channel subtype coding sequences were subcloned into the oocyte expression vector pSGEM or the dual-purpose expression vector pFAW[41] and verified by sequencing. All mutant channels were obtained by site-directed mutagenesis and verified by sequencing. To increase surface expression and macroscopic currents, measurements of THIK-2 channels used a mutated ER retention motif, (R11A R12A R14A R15A R16A; THIK-2*)[20]. Vector DNA was linearized with NheI or MluI, and mRNA was synthesized in vitro using the SP6 or T7 AmpliCap Max High Yield Message Maker Kit (Cellscript, USA) or HiScribe T7 ARCA mRNA Kit (New England Biolabs).
Two-electrode voltage–clamp (TEVC) studies were performed in Xenopus oocytes. All animal use conformed to the Guide for the Care and Use of Laboratory Animals (NIH Publication 85–23), and all experiments using Xenopus toads were approved by the local ethics panels. Oocytes were stored at 17 °C in ND96 recording solution composed of (in mM): 96 NaCl, 2 KCl, 1.8 CaCl2, 1 MgCl2, 5 HEPES (pH 7.5 adjusted with NaOH and HCl), supplemented with Na-pyruvate (275 mg L^–1), theophylline (90 mg L^–1) and gentamicin (50 mg L^–1). Oocytes were injected with 1 ng mRNA for WT or mutant channels, and were incubated for 24–48 h at 17 °C. Two-electrode voltage clamp recordings were then performed as previously described[42],[43]. For macroscopic patch–clamp measurements, oocytes were obtained as described above incubated at 17 °C in a solution containing (mM): 54 NaCl, 30 KCl, 2.4 NaHCO3, 0.82 MgSO4 ×7 H2O, 0.41 CaCl2, 0.33 Ca(NO3)2 ×4 H2O and 7.5 TRIS (pH 7.4 adjusted with NaOH and HCl) for 1–4 days before use. Excised patch recordings in inside-out configuration conditions were performed at room temperature. Patch pipettes were made from thick-walled borosilicate glass GB 200TF-8P (Science Products), had resistances of 0.2–0.5 MΩ (tip diameter, 10–25 µm) and filled with a pipette solution (in mM): 120 KCl, 10 HEPES and 3.6 CaCl2 (pH 7.4 adjusted with KOH and HCl). Intracellular bath solutions and compounds were applied to the cytoplasmic side of excised patches for the various K^+ channels through a gravity flow multi-barrel pipette system. The intracellular solution had the following composition (in mM): 120 KCl, 10 HEPES, 2 EGTA and 1 pyrophosphate (pH adjusted with KOH and HCl). Currents were recorded with an EPC10 amplifier (HEKA Electronics) and sampled at 10 kHz or higher, with filtering set to 3 kHz (–3 dB) or higher, as appropriate for sampling rate. For measurements of GPCR activation, whole-cell currents were recorded for THIK-1 in transiently transfected HEK-293 cells. Cells were stimulated by a ramp protocol between −100 and +60 mV (holding potential, −80 mV). The pipette solution was composed of (in mM): 140 KCl, 2 MgCl2, 1 CaCl2, 2.5 EGTA and 10 HEPES (pH 7.3 adjusted with KOH and HCl). The extracellular bath solution had the following composition (in mM): 135 NaCl, 5 KCl, 2 MgCl2, 2 CaCl2, 10 glucose and 10 HEPES pH (pH 7.3 adjusted with NaOH and HCl). Oxotremorine M (Oxo-M) was added to extracellular bath solution to obtain the final concentration. Single-channel currents were recorded with an Axopatch 200B amplifier through a Digidata 1440A digitizer (Molecular Devices). Data were filtered at 2 kHz and recorded at a 200-kHz sampling rate with the program Clampex (Molecular Devices). Pipette solution and bath solution for cell-attached recordings contained (in mM): 140 KCl, 2 MgCl2, 1 CaCl2 and 10 HEPES (pH 7.4 adjusted with KOH and HCl). For inside-out recordings, the bath solution contained (in mM): 140 KCl, 2 MgCl2, 1 CaCl2 and 10 HEPES (pH 7.2 adjusted with KOH and HCl). All experiments were conducted at room temperature. […]

- inhibition at 3000 µM (3.0 mM halothane, R87D, mean): 62.8%
- inhibition at 152 µM (THIK-1 R87D, 0.152 mM halothane): 14.3%
- inhibition at 304 µM (THIK-1 R87D, 0.304 mM halothane): 26%
- inhibition at 1520 µM (THIK-1 R87D, 1.52 mM halothane): 53.8%
- inhibition at 15200 µM (THIK-1 R87D, 15.2 mM halothane): 84.1%
Structure (SMILES): FC(F)(F)C(Cl)Br (stereo not drawn) [halothane]
- Inhibition (%) (3.0 mM halothane, R87D, individual recordings): 54.110% and 64.133% and 70.295% and 57.409% and 74.945% and 46.769% and 63.754% and 70.637% and 69.367% and 64.901% and 58.344% and 70.045% and 57.366% and 63.096% and 56.800%
